Source: article PMC8677648, “A robotic pill for oral delivery of biotherapeutics: safety, tolerability, and performance in healthy subjects” (Drug Delivery and Translational Research, 2021)

Assays:
[1] = Study 1: pharmacokinetics of octreotide delivered via RP or IV injection (plasma LC/MS/MS); conditions: human, in vivo, 100 ug
Experimental: This was a single-center, open-label study.
Fluoroscopic imaging was performed with Siemens AXIOM Artis dMP using standard abdominal protocol.
Serial blood samples for PK analysis were collected immediately before the injection and at 5, 10, 15, 20, 25, 30, 40, 50, 60, 90, 120, 150, 180, and 240 min after dosing.
Blood samples were collected into potassium-EDTA treated lavender top tubes, plasma was separated via centrifugation and aliquots stored at −80℃ until analyzed. […] The analysis was performed using an API 5000 mass spectrometer from Applied Biosystems.
MS Excel (2016) and GraphPad (Version 8.4.3) were used for data analysis. Categorical data are expressed as counts and percentages, and continuous data as mean ± standard deviation (SD) or standard error (SE), as indicated. PK parameters were calculated using noncompartmental analysis (NCA) implemented within a validated installation of Phoenix® WinNonlin. The Cmax (peak plasma concentration) and Tmax (time to reach Cmax) were obtained graphically from the concentration vs. time profiles. Unpaired t tests were used to determine differences between groups with a p value of 0.05 or less deemed as significant.

[2] = in vivo, cited from earlier work
Experimental: For example, subjects need to take oral semaglutide at least 30 min before the first food, beverage, or other or ...

For `C[C@@H](O)[C@@H]1NC(=O)[C@H](CCCCN)NC(=O)[C@@H](Cc2c[nH]c3ccccc23)NC(=O)[C@H](Cc2ccccc2)NC(=O)[C@@H](NC(=O)[C@H](N)Cc2ccccc2)CSSC[C@@H](C(=O)N[C@H](CO)[C@@H](C)O)NC1=O` [octreotide], the Cmax [1] was 11.1 ng/mL and the Tmax [1] was 5 min.
In the case of semaglutide, the bioavailability ([2]; po) is given as ~ 1% and the half-life [2] is given as 170 h.
